Assay results reported in US9802941B2, “Compounds and methods for inhibiting histone demethylases” (Gilead Sciences, Inc., priority 2014, dated 2017).
Read-outs that look alike come from different tables or passages of the source.

Experiments:
Format in all cases: biochemical
PHF8 (KDM7) = target: T1, PHF8 (KDM7) (Homo sapiens, UniProt Q9UPP1); experiment: Histone lysine demethylase AlphaLISA assay, PHF8
T1 construct: KDM7 (PHF8); BRIC; 1-1322; Bac
Experimental: (§1) The compounds of the application, or a pharmaceutically acceptable salt, or solvate, or prodrug thereof, are tested in an in vitro AlphaLISA assay. Enzymes are dissolved in enzyme buffer and incubated before they are added to DMSO solutions of compounds of the application, or a pharmaceutically acceptable salt, or solvate, or prodrug thereof, in enzyme buffer. The reaction mixture is then incubated for an additional period of time before substrate solution is added and then the resulting mixture again incubated. Acceptor beads and suspended Epigenetic Buffer from stock are added and the suspension is again incubated before a suspension of streptavidin donor beads in Epigenetic Buffer is added. After an additional period of incubation, the plates are read.
(§2) The ability of compounds of the application to inhibit the histone lysine demethylase activity in vitro of different enzymes was determined.
(§3) The reaction mixture was incubated for another 10 minutes before 5 μL of substrate solution was added and the resulting mixture was then incubated at room temperature. […] After incubation at room temperature in the dark, the plates were read.
(§4) Enzyme Buffer: 50 mM Hepes (pH 7.4-8.0), 0.003-0.01% Tween-20, 0.1% BSA; 5 μM (NH4)2Fe(SO4)2.

KDM5B (PLU-1) = target: T2, KDM5B (PLU-1) (Homo sapiens, UniProt Q9UGL1); experiment: Histone lysine demethylase AlphaLISA assay, KDM5B
T2 construct: BRIC; 1-809; E. coli; host or cells: E. coli
T2 sequence (Q9UGL1 1-809): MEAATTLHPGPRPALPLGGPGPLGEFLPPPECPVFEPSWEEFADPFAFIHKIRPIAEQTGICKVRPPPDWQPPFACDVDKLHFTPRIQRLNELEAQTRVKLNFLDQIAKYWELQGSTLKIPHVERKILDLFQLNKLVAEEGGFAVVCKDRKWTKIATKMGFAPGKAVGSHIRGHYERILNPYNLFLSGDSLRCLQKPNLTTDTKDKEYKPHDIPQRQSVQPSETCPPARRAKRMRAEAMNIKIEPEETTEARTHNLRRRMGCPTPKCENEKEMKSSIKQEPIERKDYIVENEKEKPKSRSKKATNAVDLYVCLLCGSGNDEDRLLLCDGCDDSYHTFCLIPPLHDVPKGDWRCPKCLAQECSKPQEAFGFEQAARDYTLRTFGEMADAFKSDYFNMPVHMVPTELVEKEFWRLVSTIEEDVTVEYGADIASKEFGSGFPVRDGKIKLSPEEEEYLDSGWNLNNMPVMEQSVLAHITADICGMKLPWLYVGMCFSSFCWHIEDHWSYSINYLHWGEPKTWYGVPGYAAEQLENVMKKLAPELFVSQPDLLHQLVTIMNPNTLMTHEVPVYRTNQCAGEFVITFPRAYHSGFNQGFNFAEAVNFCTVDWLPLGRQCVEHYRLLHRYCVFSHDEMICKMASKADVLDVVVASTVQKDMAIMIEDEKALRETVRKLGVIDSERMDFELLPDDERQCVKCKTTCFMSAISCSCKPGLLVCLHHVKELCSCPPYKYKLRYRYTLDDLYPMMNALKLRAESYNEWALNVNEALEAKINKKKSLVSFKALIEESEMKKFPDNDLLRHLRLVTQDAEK
Experimental: as §1, §2, §3, §4

KDM2B (FBXL10) = target: T3, KDM2B (FBXL10) (Homo sapiens, UniProt Q8NHM5); experiment: Histone lysine demethylase AlphaLISA assay, KDM2B
T3 construct: KDM2B; BPS,; 1-650; Bac; purchased BPS Bioscience, US; host or cells: baculovirus system
T3 sequence (Q8NHM5 1-650): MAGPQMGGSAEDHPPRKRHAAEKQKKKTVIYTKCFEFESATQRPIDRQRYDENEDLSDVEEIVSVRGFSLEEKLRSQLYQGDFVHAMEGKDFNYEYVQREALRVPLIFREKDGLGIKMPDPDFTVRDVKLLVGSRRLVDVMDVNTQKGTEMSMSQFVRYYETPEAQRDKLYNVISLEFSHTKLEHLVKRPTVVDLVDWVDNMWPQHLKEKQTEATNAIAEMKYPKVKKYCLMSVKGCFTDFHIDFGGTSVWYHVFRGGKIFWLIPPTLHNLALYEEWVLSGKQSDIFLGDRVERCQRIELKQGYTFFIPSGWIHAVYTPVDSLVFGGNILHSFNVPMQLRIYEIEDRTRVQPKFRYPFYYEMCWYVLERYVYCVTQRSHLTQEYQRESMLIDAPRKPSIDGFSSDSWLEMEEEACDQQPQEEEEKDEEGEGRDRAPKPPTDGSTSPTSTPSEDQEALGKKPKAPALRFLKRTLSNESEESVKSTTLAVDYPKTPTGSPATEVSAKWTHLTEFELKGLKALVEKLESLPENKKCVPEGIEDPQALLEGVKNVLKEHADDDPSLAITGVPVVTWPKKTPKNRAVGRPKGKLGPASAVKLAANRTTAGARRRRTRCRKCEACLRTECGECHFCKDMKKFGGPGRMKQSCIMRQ
Experimental: as §1, §2, §3, §4

KDM4C (JMJD2C) = target: T4, KDM4C (JMJD2C) (Homo sapiens, UniProt Q9H3R0); experiment: Histone lysine demethylase AlphaLISA assay, KDM4C
T4 construct: KDM4C; BRIC, Denmark; 1-349; E. coli; host or cells: E. coli
T4 sequence (Q9H3R0 1-349): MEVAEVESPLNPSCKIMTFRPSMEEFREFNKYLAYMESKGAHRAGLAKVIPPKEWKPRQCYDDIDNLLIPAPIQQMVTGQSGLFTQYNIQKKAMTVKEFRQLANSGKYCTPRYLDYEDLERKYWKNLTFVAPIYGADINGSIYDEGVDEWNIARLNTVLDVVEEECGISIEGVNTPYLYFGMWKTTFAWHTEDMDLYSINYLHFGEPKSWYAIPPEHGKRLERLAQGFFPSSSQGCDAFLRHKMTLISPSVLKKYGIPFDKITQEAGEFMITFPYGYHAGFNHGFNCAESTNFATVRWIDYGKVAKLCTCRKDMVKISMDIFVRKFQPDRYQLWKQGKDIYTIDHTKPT
Experimental: as §1, §2, §3, §4

[1] = AlphaLISA, in vitro, read-out: HDME Inhibition PHF8
[2] = AlphaLISA assay, read-out: HDME Inhibition KDM5B (IC50)
[3] = AlphaLISA, in vitro, read-out: HDME Inhibition KDM5B
[4] = AlphaLISA, in vitro, read-out: HDME Inhibition KDM2B
[5] = AlphaLISA assay, read-out: HDME Inhibition KDM4C (IC50)
[6] = AlphaLISA, in vitro, read-out: HDME Inhibition KDM4C
[7] = AlphaLISA assay, read-out: HDME Inhibition PHF8 (IC50)

T1 sequence (Q9UPP1 37-440 limits assumed): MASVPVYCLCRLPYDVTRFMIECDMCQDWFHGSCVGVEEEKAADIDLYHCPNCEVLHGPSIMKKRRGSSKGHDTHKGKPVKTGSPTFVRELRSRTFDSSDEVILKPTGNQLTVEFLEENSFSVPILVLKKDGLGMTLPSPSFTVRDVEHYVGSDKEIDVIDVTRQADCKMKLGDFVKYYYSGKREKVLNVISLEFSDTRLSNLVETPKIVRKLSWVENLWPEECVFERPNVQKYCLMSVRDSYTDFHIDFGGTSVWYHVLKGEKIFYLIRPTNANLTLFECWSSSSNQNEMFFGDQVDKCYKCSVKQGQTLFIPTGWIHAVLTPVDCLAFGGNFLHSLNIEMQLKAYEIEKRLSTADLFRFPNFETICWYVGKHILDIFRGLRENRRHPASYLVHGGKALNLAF

Row | SMILES | IC50 (PHF8 (KDM7); [1]) | IC50 (KDM5B (PLU-1); [2]) | IC50 (KDM5B (PLU-1); [3]) | IC50 (KDM2B (FBXL10); [4]) | IC50 (KDM4C (JMJD2C); [5]) | IC50 (KDM4C (JMJD2C); [6]) | IC50 (PHF8 (KDM7); [7]) | IC50 (KDM5B (PLU-1)) | IC50 (KDM2B (FBXL10); AlphaLISA assay, read-out: HDME Inhibition KDM2B (IC50))
1 | COc1ccc(OCCc2ccccc2)c(CCNCc2cc(C(=O)O)cc(CO)n2)n1 [Compound 107, 2-(hydroxymethyl)-6-[({2-[6-methoxy-3-(2-phenylethoxy)pyridin-2-yl]ethyl}amino)methyl]pyridine-4-carboxylic acid] | > 10 µM | > 10 µM | > 10 µM | 5.18 µM | > 10 µM | > 10 µM | > 10 µM | – | –
2 | CC(C)Cc1ccc(OCc2ccccc2)nc1CNCc1cc(C(=O)O)cc(CO)n1 [Compound 97, 2-[({[6-(benzyloxy)-3-(2-methylpropyl)pyridin-2-yl]methyl}amino)methyl]-6-(hydroxymethyl)pyridine-4-carboxylic acid] | > 10 µM | > 10 µM | > 10 µM | 0.308 µM | > 10 µM | > 10 µM | > 10 µM | – | –
3 | Cc1ccc(OCCC(C)C)c(CCNCc2cc(C(=O)O)cc(C)n2)c1 [Compound 89, 2-methyl-6-[({2-[5-methyl-2-(3-methylbutoxy)phenyl]ethyl}amino)methyl]pyridine-4-carboxylic acid] | > 10 µM | > 10 µM | > 10 µM | 2.3 µM | > 10 µM | > 10 µM | > 10 µM | – | –
4 | Cc1cc(C(=O)O)cc(CNCc2nccn2CCc2ccccc2)n1 [Compound 61, 2-methyl-6-[({[1-(2-phenylethyl)-1H-imidazol-2-yl]methyl}amino)methyl]pyridine-4-carboxylic acid] | 2.55 µM | > 10 µM | > 10 µM | 4.18 µM | > 10 µM | > 10 µM | – | – | –
5 | CCN(CCN(C)C)C(=O)CNCc1cc(C(=O)O)cc(C)n1 [Compound 98, 2-{[({[2-(dimethylamino)ethyl](ethyl)carbamoyl}methyl)amino]methyl}-6-methylpyridine-4-carboxylic acid] | > 10 µM | – | 0.008 µM | 0.53 µM | – | 1.67 µM | > 10 µM | – | –
6 | Cc1cc(C(=O)O)cc(CNCc2nccn2Cc2cccc(CN)c2)n1 [Compound 48, 2-({[(1-{[3-(aminomethyl)phenyl]methyl}-1H-imidazol-2-yl)methyl]amino}methyl)-6-methylpyridine-4-carboxylic acid] | > 10 µM | > 10 µM | > 10 µM | > 10 µM | > 10 µM | > 10 µM | > 10 µM | – | > 10 µM
7 | Cc1cc(C(=O)O)cc(CNCc2nccn2CC(C)C)n1 [Compound 80, 2-methyl-6-[({[1-(2-methylpropyl)-1H-imidazol-2-yl]methyl}amino)methyl]pyridine-4-carboxylic acid] | 5.3 µM | – | – | 0.683 µM | > 10 µM | > 10 µM | – | 1.99 µM | –
8 | Cc1nc(CNCc2cc(C(=O)O)cc(CO)n2)n(Cc2ccc(F)cc2)c1C [Compound 83, 2-{[({1-[(4-fluorophenyl)methyl]-4,5-dimethyl-1H-imidazol-2-yl}methyl)amino]methyl}-6-(hydroxymethyl)pyridine-4-carboxylic acid] | 4.95 µM | – | – | 1.53 µM | > 10 µM | > 10 µM | – | 0.755 µM | –

Stronger by IC50 (PHF8 (KDM7); [1]), values ahead:

Row | IC50 (PHF8 (KDM7); [1]) | IC50 (KDM5B (PLU-1); [2]) | IC50 (KDM5B (PLU-1); [3]) | IC50 (KDM2B (FBXL10); [4]) | IC50 (KDM4C (JMJD2C); [5]) | IC50 (KDM4C (JMJD2C); [6]) | IC50 (PHF8 (KDM7); [7]) | IC50 (KDM5B (PLU-1)) | IC50 (KDM2B (FBXL10); AlphaLISA assay, read-out: HDME Inhibition KDM2B (IC50)) | SMILES
9 | 2.03 µM | > 10 µM | > 10 µM | 0.047 µM | > 10 µM | > 10 µM | – | – | – | CCc1nnc(CNCc2cc(C(=O)O)cc(CO)n2)n1CCCC(C)C [Compound 94, 2-[({[5-ethyl-4-(4-methylpentyl)-4H-1,2,4-triazol-3-yl]methyl}amino)methyl]-6-(hydroxymethyl)pyridine-4-carboxylic acid]
10 | 1.14 µM | – | – | 0.34 µM | > 10 µM | > 10 µM | – | 0.641 µM | – | O=C(O)c1cc(CO)nc(CNCc2nncn2CCCc2ccccc2)c1 [Compound 78, 2-(hydroxymethyl)-6-[({[4-(3-phenylpropyl)-4H-1,2,4-triazol-3-yl]methyl}amino)methyl]pyridine-4-carboxylic acid]
11 | 1.11 µM | > 10 µM | > 10 µM | 0.838 µM | > 10 µM | > 10 µM | – | – | – | Cc1cc(C(=O)O)cc(CNCc2nnc(C(C)(C)C)n2Cc2ccc(F)cc2)n1 [Compound 49, 2-{[({5-tert-butyl-4-[(4-fluorophenyl)methyl]-4H-1,2,4-triazol-3-yl}methyl)amino]methyl}-6-methylpyridine-4-carboxylic acid]
12 | 0.869 µM | > 10 µM | > 10 µM | 0.442 µM | > 10 µM | > 10 µM | – | – | – | CSc1cnc(CNCc2cc(C(=O)O)cc(C)n2)n1Cc1ccc(F)cc1 [Compound 43, 2-{[({1-[(4-fluorophenyl)methyl]-5-(methylsulfanyl)-1H-imidazol-2-yl}methyl)amino]methyl}-6-methyl pyridine-4-carboxylic acid]
13 | 0.673 µM | – | 6.2 µM | 0.251 µM | > 10 µM | > 10 µM | – | – | – | COc1ccc(CC(C)C)c(CNCc2cc(C(=O)O)cc(CO)n2)n1 [Compound 84, 2-(hydroxymethyl)-6-[({[6-methoxy-3-(2-methylpropyl)pyridin-2-yl]methyl}amino)methyl]pyridine-4-carboxylic acid]
14 | 0.246 µM | > 10 µM | > 10 µM | 0.104 µM | > 10 µM | > 10 µM | – | – | – | CCc1nnc(CNCc2cc(C(=O)O)cc(CO)n2)n1Cc1ccc(F)cc1 [Compound 64, 2-{[({5-ethyl-4-[(4-Fluorophenyl)methyl]-4H-1,2,4-triazol-3-yl}methyl)amino]methyl}-6-(hydroxymethyl)pyridine-4-carboxylic acid]
